According to patent US20110244047A1, “FILM-FORM PREPARATION AND METHOD FOR PRODUCING THE SAME” (NITTO DENKO CORPORATION, priority 2010, published 2011):

Assay: Particle size of the drug particles used (electron microscope, 200 particles)
Type: physicochemical
Conditions: drug particles before incorporation
Experimental: The various drug particles used in the Examples and Comparative Examples were obtained passing the powder through a 32 μm, 50 μm or 90 μm sieve after pulverization, or obtained fine particles by a jet mill (product of Hosokawa Micron Group, spiral jet mill model 50AS) or a spray dryer (product of Büchi Labortechnik AG, mini spray dryer model B-290) after pulverization. The particle sizes of these drug particles was measured by electron microscope (product of Hitachi High-Technologies Corp., model TM-1000) and the 50 vol % average particle size was calculated from the measurement results of 200 particles. This value was used as the particle size index of the particles.

| 50 vol % average particle size [um] | Structure (SMILES) |
| --- | --- |
| 180.5 | COc1ccc2[nH]cc(CCNC(C)=O)c2c1 [Melatonin particles C, Melatonin] |
| 28.4 | COc1ccc2[nH]cc(CCNC(C)=O)c2c1 [Melatonin particles B, Melatonin] |
| 1.7 | CC(C(=O)O)c1cccc(C(=O)c2ccccc2)c1 (centres unmarked) [Ketoprofen particles, Ketoprofen] |
| 2.1 | COc1ccc2[nH]cc(CCNC(C)=O)c2c1 [Melatonin particles A, Melatonin] |
| 1.8 | COc1ccc2c(c1)c(CC(=O)O)c(C)n2C(=O)c1ccc(Cl)cc1 [Indomethacin particles, Indomethacin] |
